Laboratory results as given in the RepoRT retention time repository (doi:10.1016/j.aca.2011.12.065).
Structures can show the parent of a compound that is named as a salt.

Assay: RP, Waters ACQUITY UPLC BEH C18, 100 × 2.1 mm, 1.7 µm; A: water + 0.1% formic acid, pH 3; B: 80% acetonitrile + 20% acetone + 0.1% formic acid, pH 3; gradient (min/%B) 0/0 6/100
Details: stereoisomer not certain

Structure (SMILES) | LC retention time
CCCCCCCCCCCCCCCCC=COCC(O)COP(=O)([O-])OCC[N+](C)(C)C (stereo not drawn) | 4.95 min
CCC(C)(O)C(=O)O (stereo not drawn) [2-Hydroxy-2-methylbutyric acid] | 1.63 min
CC(C)C(O)C(=O)O (stereo not drawn) [2-Hydroxy-3-methylbutyric acid] | 1.69 min
CCC(C)C(=O)C(=O)O (stereo not drawn) [2-Oxo-3-methylpentanoic acid] | 1.86 min
CC(C)CC(=O)C(=O)O [2-Oxo-4-methylpentanoic acid] | 1.99 min
CCCC(=O)C(=O)O [2-Oxovaleric acid] | 1.62 min
CC(=O)C(C)C(=O)O (stereo not drawn) [2-methylacetoacetic acid] | 1.61 min
O=C(O)CCc1ccc(O)c(O)c1 [3,4-dihydroxyhydrocinnamic acid] | 1.69 min
OCC(O)c1ccc(O)c(O)c1 (stereo not drawn) [3,4-dihydroxyphenyl glycol] | 1.02 min
CC(O)C(C)C(=O)O (stereo not drawn) [3-Hydroxy-2-methylbutyric acid] | 1.51 min
Nc1ccc(OS(=O)(=O)O)cc1 [4-Aminophenyl hydrogen sulfate] | 0.641 min
Nc1ccc(O)cc1 [4-aminophenol] | 0.641 min
O=C(O)Cc1c[nH]c2ccc(O)cc12 [5-hydroxyindole-3-acetic acid] | 1.61 min
COc1ccc(O)c(C(=O)O)c1 [5-methoxysalicylic acid] | 2.41 min
CC12CCC(=O)C=C1CCC1C2CCC2(C)C1CCC2(O)C(=O)CO (stereo not drawn) [11-Deoxy-17-hydroxycorticosterone] | 3.04 min
CC(O)C1CCC2C3CCC4CC(=O)CCC4(C)C3CCC12C (stereo not drawn) [20-beta-Hydroxy-5-alpha-pregnan-3-one] | 4.33 min
CC[C@@H](O)C(=O)[O-] [(R)-2-hydroxybutyric acid] | 1.4 min
CC(C)C(=O)C(=O)O [Alpha-ketoisovaleric acid] | 1.45 min
CCCCCCCCCCCCCCCCOCC(COP(=O)([O-])OCC[N+](C)(C)C)OC(=O)CCCCCCCC(=O)O (stereo not drawn) [Azelaoyl PAF 10 ug/ml] | 4.86 min
CC12CCc3occc3C1CCC13CC(CCC12)C(O)(CO)C3 (stereo not drawn) [Cafestol (10x dilute)] | 3.19 min
CCC(C)C1NC(=O)C(C)NC1=O (stereo not drawn) [Cyclic(ala-ile)] | 1.8 min
CC(C)CC1NC(=O)C(C)NC1=O (stereo not drawn) [Cyclic(ala-leu)] | 1.86 min
O=C(O)CCC1NC(=O)C(CC(=O)O)NC1=O (stereo not drawn) [Cyclic(asp-glu)] | 0.884 min

Structure (SMILES) | LC retention time
CCC(C)C1NC(=O)C(CC(=O)O)NC1=O (stereo not drawn) [Cyclic(asp-ile)] | 1.65 min
CC(C)CC1NC(=O)C(CC(=O)O)NC1=O (stereo not drawn) [Cyclic(asp-leu)] | 1.68 min
CCC(C)C1NC(=O)C(CCC(=O)O)NC1=O (stereo not drawn) [Cyclic(glu-ile)] | 1.71 min
O=C(O)CCC1NC(=O)C2CCCN2C1=O (stereo not drawn) [Cyclic(glu-pro)] | 1.43 min
CC(C)C1NC(=O)C(CCC(=O)O)NC1=O (stereo not drawn) [Cyclic(glu-val)] | 1.5 min
CCC(C)C1NC(=O)C(C(C)C)NC1=O (stereo not drawn) [Cyclic(ile-val)] | 2.31 min
CC(C)C1NC(=O)C(Cc2ccccc2)NC1=O (stereo not drawn) [Cyclic(phe-val)] | 2.39 min
CC(C)C1NC(=O)C2CCCN2C1=O (stereo not drawn) [Cyclic(pro-val)] | 1.74 min
O=C(O)CNC(=O)C=Cc1c[nH]c2ccccc12 [INDOLE-3-ACRYLOYLGLYCINE] | 2.13 min
CCCCCC=CCC=CCCCCCCCC(=O)OCC(O)COP(=O)([O-])OCC[N+](C)(C)C (stereo not drawn) [LPC(18:2)_enz] | 4.25 min
CCC=CCC=CCC=CCC=CCC=CCCCC(=O)OCC(O)COP(=O)([O-])OCC[N+](C)(C)C (stereo not drawn) [LPC(20:5)_enz] | 4.02 min
CNC(CC(=O)O)C(=O)O (stereo not drawn) [N-methyl-aspartic acid] | 0.58 min
O=C(O)CNC(=O)c1cccnc1 [Nicotinuric acid] | 1.35 min
CCCCCCCCCCCCCCCC(=O)OCC(COP(=O)([O-])OCC[N+](C)(C)C)OC(=O)CCCCCCCC(=O)O (stereo not drawn) [PAZ-PC] | 4.66 min
CCC=CCC=CCC=CCC=CCC=CCCCC(=O)OCC(COP(=O)([O-])OCC[N+](C)(C)C)OC(=O)CCCC=CCC=CCC=CCC=CCC=CCC (stereo not drawn) [PC(20:5/20:5)] | 5.62 min
CCCCCCCCCCCCCCCC(=O)OCC(COP(=O)([O-])OCC[N+](C)(C)C)OC(=O)CCCC(=O)O (stereo not drawn) [PGPC] | 4.52 min
CCCCCCCCCCCCCCCC(=O)OCC(COP(=O)([O-])OCC[N+](C)(C)C)OC(=O)CCCC=O (stereo not drawn) [POV-PC 10 ug/ml] | 4.66 min
CC(C)C(NC(=O)C(N)Cc1ccccc1)C(=O)O (stereo not drawn) [Phe-Val] | 1.63 min
CC12C=CC(=O)C=C1CCC1C2C(O)CC2(C)C1CCC2(O)C(=O)CO (stereo not drawn) [Prednisolone] | 2.65 min
Cc1ncc(C[n+]2csc(CCOP(=O)(O)O)c2C)c(N)n1 [Thiamine monophosphate Cloride dihydrat] | 0.595 min
CC(C)C(N)C(=O)NC(Cc1ccccc1)C(=O)O (stereo not drawn) [Val-Phe] | 1.7 min
CC(C)C(N)C(=O)O (stereo not drawn) [Valine] | 0.798 min
CC(C)(O)C(=O)O [alpha-hydroxyisobutyric acid] | 1.4 min

Structure (SMILES) | LC retention time
CCC(C)C(NC(=O)C(N)CC(=O)O)C(=O)O (stereo not drawn) [asp-ile] | 0.6 min
CC(C)CC(NC(=O)C(N)CC(=O)O)C(=O)O (stereo not drawn) [asp-leu] | 0.6 min
CCC(C)C(NC(=O)CC(N)C(=O)O)C(=O)O (stereo not drawn) [beta-asp-ile] | 0.6 min
CC(C)CC(NC(=O)CC(N)C(=O)O)C(=O)O (stereo not drawn) [beta-asp-leu] | 0.6 min
CC(O)CC(=O)[O-] (stereo not drawn) [beta-hydroxybutyric acid] | 1.78 min
CC(CO)C(=O)O (stereo not drawn) [beta-hydroxyisobutyric acid] | 1.4 min
CS(=O)CCC(N)C(=O)O (stereo not drawn) [dl methine sulfoxide] | 0.596 min
O=C(O)CCCO [gamma-hydroxybutyric acid] | 1.07 min
CC(C)C(NC(=O)C(N)CCC(=O)O)C(=O)O (stereo not drawn) [glu-val] | 1.32 min
CCC(C)C(N)C(=O)NC(CC(=O)O)C(=O)O (stereo not drawn) [ile-asp] | 0.6 min
O=Cc1c[nH]c2ccccc12 [indole-3-carbaldehyde] | 2.27 min
Nc1ccccc1C(=O)CC(N)C(=O)O (stereo not drawn) [l-kynurenine] | 1.34 min
CC(C)CC(N)C(=O)NC(CC(=O)O)C(=O)O (stereo not drawn) [leu-asp] | 0.6 min
O=C(O)CC(NC(=O)C1CCC(=O)N1)C(=O)O (stereo not drawn) [pglu-asp] | 0.6 min
CCC(C)C(NC(=O)C1CCC(=O)N1)C(=O)O (stereo not drawn) [pglu-ile] | 1.83 min
CC(C)CC(NC(=O)C1CCC(=O)N1)C(=O)O (stereo not drawn) [pglu-leu] | 1.89 min
CC(C)C(NC(=O)C1CCC(=O)N1)C(=O)O (stereo not drawn) [pglu-val] | 1.57 min
NC(Cc1ccccc1)C(=O)NC(CC(=O)O)C(=O)O (stereo not drawn) [phe-asp] | 1.54 min
CC(O)C(NC(=O)C1CCCN1)C(=O)O (stereo not drawn) [pro-thr] | 0.6 min
CCC(=O)OC(CC(=O)[O-])C[N+](C)(C)C (stereo not drawn) [propionylcarnitine chloride] | 1.35 min
COc1cc(C(=O)O)cc(OC)c1O [syringic acid] | 1.79 min
CC(CCC(=O)NCCS(=O)(=O)O)C1CCC2C3CCC4CC(O)CCC4(C)C3CCC12C (stereo not drawn) [taurolithocholic acid] | 3.84 min
CC(C)C(N)C(=O)NC(CCC(=O)O)C(=O)O (stereo not drawn) [val-glu] | 0.906 min

Assay: RP, Waters ACQUITY UPLC HSS T3, 100 × 2.1 mm, 1.8 µm; A: water + 0.1% formic acid, pH 3; B: 30% methanol + 70% acetonitrile + 0.1% formic acid, pH 3; gradient (min/%B) 0.0/5 1.0/8 2.0/15 3.0/40 4.0/70 4.5/100 5.0/100 6.4/100 6.6/5.0 6.8/5.0 7.0/5.0
Details: stereoisomer not certain

Structure (SMILES) | LC retention time
CC12CCC3C(CCC4CC(=O)CCC43C)C1CCC2O (stereo not drawn) | 4.47 min
CC(C)(N)C(=O)O [2-aminoisobutyric acid] | 0.524 min
CCC(C)(O)C(=O)O (stereo not drawn) [2-hydroxy-2-methylbutyric acid] | 2.23 min
COc1ccc(O)c(C(=O)O)c1 [2-hydroxy-5-methoxylbenzoic acid] | 3.69 min
CC(C)C(O)C(=O)O (stereo not drawn) [2-hydroxyisovaleric acid] | 2.54 min
Cc1ccccc1C(=O)NCC(=O)O [2-methylhippuric acid] | 3.41 min
OCC(O)c1ccc(O)c(O)c1 (stereo not drawn) [3,4-dihydroxyphenylglycol] | 0.858 min
Cn1c(=O)[nH]c(=O)c2c1[nH]c(=O)n2C [3,7-dimethyluric acid] | 1.55 min
CC(O)CC(=O)O (stereo not drawn) [3-hydroxybutyric acid] | 3.44 min
O=C(O)Cc1c[nH]c2ccccc12 [3-indoleacetic acid] | 3.63 min
Cc1cc(C(=O)O)ccc1O [4-hydroxy-3-methylbenzoic acid] | 3.46 min
O=C(O)Cc1c[nH]c2ccc(O)cc12 [5-hydroxyindole-acetic acid] | 2.92 min
Cn1c(=O)[nH]c2[nH]c(=O)[nH]c(=O)c21 [7-methyluric acid] | 1.08 min
Cn1cnc2[nH]c(=O)[nH]c(=O)c21 [7-methylxanthine] | 1.25 min
O=C1OC(C(O)CO)C(O)=C1O (stereo not drawn) [Ascorbic acid] | 0.561 min
O=C(O)C1OC(Oc2ccccc2O)C(O)C(O)C1O (stereo not drawn) [Pyrocatechol glucuronide] | 2.81 min
C[N+](C)(C)[O-] [TMAO] | 0.468 min
CC(=O)Nc1c(N)[nH]c(=O)n(C)c1=O [aamu] | 0.666 min
C=CCS(=O)CC(N)C(=O)O (stereo not drawn) [aliin] | 0.638 min
NC(=O)NC(NC(N)=O)C(=O)O [allantoic acid] | 0.491 min
CC(C)C(=O)C(=O)O [alpha-ketoisovaleric acid] | 1.92 min
Cn1cncc1CC(NC(=O)CCN)C(=O)O (stereo not drawn) [anserine] | 0.441 min
NC(CC(=O)O)C(=O)NC(Cc1ccccc1)C(=O)O (stereo not drawn) [asp-phe] | 2.67 min
NCCC(=O)NC(Cc1cnc[nH]1)C(=O)O (stereo not drawn) [carnosine] | 0.437 min
